In US4499082A, “α-Aminoboronic acid peptides” (E. I. Du Pont de Nemours and Company, priority 1983, dated 1985):
pKi: −log10 of the molar value. Where two headings read alike, the source gives them in different places. One block for each compound: values may come before it.

How the values were obtained:
chymotrypsin = chymotrypsin (Bos taurus, UniProt P00766); settings: Matteson et al.; cited from earlier work
[1] = target: Porcine pancreatic elastase (Sus scrofa, UniProt P00772); assay: Inhibition of pancreatic elastase; type: biochemical; settings: inhibitor 5 × 10^4 nM
Porcine pancreatic elastase, sequence (P00772 27-266): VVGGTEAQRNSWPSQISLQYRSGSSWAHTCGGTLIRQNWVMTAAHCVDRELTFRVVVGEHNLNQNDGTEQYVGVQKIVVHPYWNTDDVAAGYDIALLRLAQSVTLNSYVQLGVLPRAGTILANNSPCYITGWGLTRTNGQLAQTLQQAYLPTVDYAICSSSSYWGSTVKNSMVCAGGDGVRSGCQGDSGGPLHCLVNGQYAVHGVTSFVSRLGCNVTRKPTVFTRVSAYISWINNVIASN
Description: Porcine pancreatic elastase (9.8 U/mg.) was obtained from commercial sources. […] Reactions were initiated by addition of 0.5 μg of elastase in 0.020 mL of 0.020M sodium acetate buffer, pH 6.0, and hydrolysis of substrate was monitored spectrophotometrically at 405 nm at 25° C. Assay results are set forth in Table 4, below, expressed as percentages of activity of control mixtures to which no inhibitor was added: […]

Bovine α-chymotrypsin = target: T1, Bovine α-chymotrypsin (Bos taurus, UniProt P00766); assay: Inhibition of α-chymotrypsin; type: biochemical; settings: inhibitor 100 nM; N.T (no detectable time dependence)
T1 construct: purchased
Description: Bovine α-chymotrypsin, obtained from commercial sources, was used to prepare stock solutions. […] Reactions were initiated by the addition of 0.040 μg of enzyme and increases in absorbance were monitored spectrophotometrically at 405 nm at 25°.

neutrophil elastase [2] = target: T2, neutrophil elastase (Homo sapiens, UniProt P08246); assay: Inhibition of neutrophil elastase (Table 2); type: biochemical; parameters: Neutrophil elastase was prepared by the procedure described by Baugh. et al; from tissue; settings: inhibitor 5,000 nM
T2 sequence (P08246 30-267): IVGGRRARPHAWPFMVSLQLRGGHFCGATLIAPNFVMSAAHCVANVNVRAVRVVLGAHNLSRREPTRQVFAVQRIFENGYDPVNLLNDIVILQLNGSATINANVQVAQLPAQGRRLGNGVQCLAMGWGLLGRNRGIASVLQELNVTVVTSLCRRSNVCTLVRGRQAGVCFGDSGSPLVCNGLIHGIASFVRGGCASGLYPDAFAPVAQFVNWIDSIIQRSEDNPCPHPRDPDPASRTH
Description: Neutrophil elastase was prepared by the procedure described by Baugh. et al., Biochemistry 15:836 […]. Enzyme assays were conducted substantially according to the procedure disclosed by Nakajima, et al., J. Biol. […] Inhibitors were evaluated by comparing enzymatic activity measured in the presence and absence of inhibitor.

[3] = plasma incubated at 4°
Description: The stability of inhibitory capacity provided by MeOSuc-AlaAlaPro-Boroval-OH in plasma was determined by incubating samples of plasma containing inhibitor at 4° for 24 hours, followed by assays for inhibitory capacity conducted as above.

neutrophil elastase [4] = target: T2, neutrophil elastase; assay: Kinetic constants for interaction with human neutrophil elastase (Table 1); type: biochemical; parameters: Neutrophil elastase was prepared by the procedure described by Baugh. et al; from tissue
Description: A more extensive evaluation of the kinetic constants for interaction of human neutrophil elastase with MeOSuc-AlaAlaPro-Boroval-OH were determined by methods substantially similar to those disclosed by Schloss, et al., Biochemistry 19:2358 (1980), who describe the following equation describing reversible, tight binding inhibition: [drawing 13]
As determined herein, Ki (initial)=k2 /k1; Ki (final)=(k2 /k1)k4 /(k3 +k4); and […]; E=[Enzyme]; I=[inhibitor]; EI and EI*=[enzyme-inhibitor complexes].
Ki (initial) was determined from initial velocity studies, according to the method of Lineweaver and Burk. Substrate concentration was varied from 0.80-0.04 mM, and concentration of inhibitor (MeOSuc-AlaAlaPro-Boroval-OH) was 200 nM. Observed inhibition appeared to be competitive, since double reciprocal plots of initial velocity vs. substrate concentration intercepted the y-axis at the same point.
The data were fitted to the following equation: P=P0 +(vi -vf)/k+vf t+(vf -vi)e^-kt /k. P is the concentration of product at time t, vi is the initial velocity, vf is the final steady state velocity, k is the first order rate constant and P0 is the concentration of product at t=0. Values of Ki (initial) and Ki (final) were then determined from plots of velocity^-1 vs. concentration of inhibitor using the method described by Dixon, Biochem. J. 55:170 (1953).

neutrophil elastase [5] = target: T2, neutrophil elastase; assay: Inhibition of neutrophil elastase, additional peptide inhibitors preincubated in phosphate buffer (Table 3); type: biochemical; parameters: Neutrophil elastase was prepared by the procedure described by Baugh. et al; from tissue; settings: Conc. 1.0 × 10^-7 M
Description: Additional peptide inhibitors were evaluated by a procedure similar to that described above. Stock solutions of inhibitors (1.00 mM) were prepared in dimethylsulfoxide and compounds were diluted to 0.10 mM with […], pH 7.5, yielding the free boronic acid. After incubation for one hour at about 23°, inhibitors were added to assay solutions (2.00 mL) consisting of […] MeOSuc-Ala-AlaProVal-p-nitroanilide in 0.10M Hepes buffer, pH 7.5, containing 0.50M NaCl. Assays were initiated by addition of 0.50 μg neutrophil elastase. Control assays without inhibitor indicated an initial velocity of 0.0195 min^-1. The value "k" in Table 3, below, is an estimate of the first order rate constant for time-dependent inhibition, as described above for MeOSuc-AlaAlaPro-Boroval-OH (Table 1).

[6] = hamster, in vivo
Description: Plasma, 5 μL, containing various concentrations of inhibitor, or a dilution thereof, was incubated with 10 μL of a stock solution of 1.15×10^-5 M pancreatic elastase, in a final volume of 0.40 mL 0.10M Hepes buffer, pH 7.5, containing 0.5M NaCl at 25°. After 5 minutes incubation, 1.60 mL additional buffer and 20 μL of a 0.20M MeOSuc-AlaAlaPro-Val-pNA solution in dimethylsulfoxide was added and the increase in absorbance at 405 nm monitored. Levels of inhibitor were determined from a standard curve of % activity vs. inhibitor concentration.
FIG. 1 illustrates results of experiments in which hamsters, 50 days old, weighing 80-90 g, were administered MeOSu-AlaAlaPro-Boroval-pinacol in 1.0 mL saline at intraperitoneal dosage levels of 400, 200 and 100 mg/kg. At the indicated time intervals, blood samples (50-100 μL) were withdrawn by cardiac puncture from animals lightly anesthetized with ether, and elastase inhibitor levels determined. Normal plasma EIC is 14 μM.

α-chymotrypsin = target: T3, α-chymotrypsin (Bos taurus, UniProt P00766); settings: competitive inhibitor; Lindquist et al.; cited from earlier work
T3 construct: purchased

[7] = system: experimentally-induced emphysema in hamsters; settings: intraperitoneally; cited from earlier work
neutrophil elastase [8] = target: T2, neutrophil elastase; settings: cited from earlier work
emphysema in mice = settings: cited from earlier work
hamsters = settings: intratracheal administration; cited from earlier work

Compound: CC(=O)N[C@@H](Cc1ccccc1)B(O)O [(R)-1-acetamido-2-phenylethaneboronic acid]
pKi (chymotrypsin): 5.40

Compound: CC(C)(C)OC(=O)N[C@@H](Cc1ccccc1)C(=O)N1CCC[C@H]1C(=O)N[C@@H](Cc1ccccc1)B1OC(C)(C)C(C)(C)O1 [Boc--Phe--Pro--Borophe--pinacol, Boc-PhePro-Borophe-pinacol]
Activity % of Control ([1]; 0.5 min): 69.1 % of Control
Activity % of Control ([1]; 4.0 min): 21 % of Control
Activity % of Control (Bovine α-chymotrypsin): 69 % of Control
% Activity (neutrophil elastase [2]; 0.5 min): 42%
% Activity (neutrophil elastase [2]; 2 min): 23%
% Activity (neutrophil elastase [2]; 4 min): 17%

pKi (neutrophil elastase [4]; initial velocity studies, Lineweaver and Burk, inhibitor 200 nM, read-out: Ki Initial): 6.82
pKi (neutrophil elastase [4]; progressive inhibition, Dixon plot, t = 0, inhibitor 30-300 nM, read-out: Ki Initial): 7.04
pKi (neutrophil elastase [4]; progressive inhibition, Dixon plot, t = infinity, equilibrium, read-out: Ki Final): 8.21
% Initial Activity (neutrophil elastase [5]): 61%
k, first order rate constant for time-dependent inhibition (neutrophil elastase [5]): 0.27 min⁻¹
Compound: COC(=O)CCC(=O)N[C@@H](C)C(=O)N[C@@H](C)C(=O)N1CCC[C@H]1C(=O)NC(B(O)O)C(C)C (stereo partly drawn) [MeOSuc--Ala--Ala--Pro--Boroval--OH, MeOSuc-AlaAlaPro-Boroval-OH]
% Activity, Plasma + Inhibitor ([3]; t = 0 hr.): 18.5%
% Activity, Plasma + Inhibitor ([3]; t = 48 hr.): 17%

elevation of plasma EIC [6]: at least 10 fold
Compound: COC(=O)CCC(=O)N[C@@H](C)C(=O)N[C@@H](C)C(=O)N1CCC[C@H]1C(=O)NC(B1OC(C)(C)C(C)(C)O1)C(C)C (stereo partly drawn) [MeOSuc--Ala--Ala--Pro--Boroval--pinacol, MeOSuc-AlaAlaPro-Boroval-pinacol]

Compound: O=C(NCB(O)O)c1ccccc1 [N-benzoylaminomethaneboronic acid]
pKi (α-chymotrypsin): 5.40 to 6.00

Compound: N-acetyl-L-alanyl-L-alanyl-L-prolyl-L-alanine chloromethyl ketone [Ac-Ala-Ala-Pro-AlaCH2 Cl]
block of experimentally-induced emphysema [7]: effectively block experimentally-induced emphysema

Compound: N-methoxysuccinyl-L-alanyl-L-alanyl-L-prolyl-L-valine chloromethyl ketone [MeOSuc-Ala-Ala-Pro-ValCH2 Cl]
concentration exhibiting inhibitory activity (neutrophil elastase [8]): 25 µM
effectiveness (emphysema in mice; administered more than fifteen minutes prior to intrapulmonary instillation of elastase): ineffective
treatment of emphysema (emphysema in mice; given orally): effective agent in the treatment of emphysema

Compound: N-succinyl-L-alanyl-L-alanyl-L-prolyl-L-valine chloromethyl ketone [Suc-Ala-Ala-Pro-ValCH2 Cl]
effectiveness (hamsters): effective
